Test results as given in patent publication US20040147545A1, “Derivatives of oxazolidinones as antibacterial agents” (priority 2001, published 2004).
Values after ≈ are worked out from the molar mass of the structure shown.

Columns and labels:
Format in all cases: cell-based
[1] = test system: E. faecalis resistant to vancomycin; assay: Antibacterial activity, microdilution in culture broth (NCCLS), strain B; conditions: Enterococcus faecalis, G (+) hospital strain, inoculum 5×10^5 UFC/ml
Excerpt: (§1) The antibacterial activity of the new synthesised compounds on the various strains of the bacterial species was implemented using the technique of microdilution in culture broth according to the regulations of the National Committee for Clinical Laboratory Standards (NCCLS), (NCCLS. 1993. Methods for dilution antimicrobial susceptibility tests for bacteria that grow aerobically. Approved standard M7-A3. NCCLS, Vilanova. Pa., and NCCLS. 1993. Methods for dilution antimicrobial susceptibility tests for anaerobic bacteria […]. Approved standard M1-A3. NCCLS, Vilanova. Pa.).
(§2) The inoculum used was 5×10^5 UFC/ml following dilution of the cultures overnight in the exponential phase of bacterial growth.
(§3) The MIC expressed in mg/l was defined as the minimum concentration of antibiotic which inhibited any visible growth.
(§4) Linezolid was included as comparative compound.
(§5) The compounds were tested on the strains of G(+) and G(−) bacteria set out in Table 1, in which: […]

[2] = test system: S. aureus resistant to meticillin; assay: Antibacterial activity, microdilution in culture broth (NCCLS), strain A; conditions: Staphylococcus aureus, G (+) hospital strain, inoculum 5×10^5 UFC/ml
Excerpt: as §1, §2, §3, §4, §5

[3] = test system: E. coli; assay: Antibacterial activity, microdilution in culture broth (NCCLS), strain H; conditions: Escherichia coli, G (−) hospital strain, inoculum 5×10^5 UFC/ml
Excerpt: as §1, §2, §3, §4, §5

[4] = test system: S. pneumoniae resistant to penicillin; assay: Antibacterial activity, microdilution in culture broth (NCCLS), strain C; conditions: Streptococcus pneumoniae, G (+) hospital strain, inoculum 5×10^5 UFC/ml
Excerpt: as §1, §2, §3, §4, §5

[5] = test system: M. Catarrahalis; assay: Antibacterial activity, microdilution in culture broth (NCCLS), strain J; conditions: G (−) hospital strain, inoculum 5×10^5 UFC/ml
Excerpt: as §1, §2, §3, §4, §5

[6] = test system: S. epidermidis; assay: Antibacterial activity, microdilution in culture broth (NCCLS), strain E; conditions: Staphylococcus epidermidis, G (+) hospital strain, inoculum 5×10^5 UFC/ml
Excerpt: as §1, §2, §3, §4, §5

[7] = test system: S. agalactiae; assay: Antibacterial activity, microdilution in culture broth (NCCLS), strain D; conditions: Streptococcus agalactiae, G (+) hospital strain, inoculum 5×10^5 UFC/ml
Excerpt: as §1, §2, §3, §4, §5

[8] = test system: S. pyogenes; assay: Antibacterial activity, microdilution in culture broth (NCCLS), strain F; conditions: Streptococcus pyogenes, G (+) hospital strain, inoculum 5×10^5 UFC/ml
Excerpt: as §1, §2, §3, §5

[9] = test system: B. fragilis; assay: Antibacterial activity, microdilution in culture broth (NCCLS), strain G (anaerobic); conditions: Bacteroides fragilis, anaerobic hospital strain, inoculum 5×10^5 UFC/ml
Excerpt: as §1, §2, §3, §4, §5

[10] = test system: H. influenzae; assay: Antibacterial activity, microdilution in culture broth (NCCLS), strain I; conditions: Haemophilus influenzae, G (−) hospital strain, inoculum 5×10^5 UFC/ml
Excerpt: as §1, §2, §3, §4, §5

Question: Which MIC [1] does the source give for CCOC(=O)c1cn(CCF)c2c(F)c(N3CCN(c4ccc(N5C[C@H](CNC(C)=O)OC5=O)cc4F)CC3)c(F)cc2c1=O [EXAMP. 17, 7-(4-{4-[5-(S)-(acetylamino-methyl)-2-oxo-oxazolidin-3-yl]-2-fluoro-phenyl}-piperazin-1-yl)-6,8-difluoro-1-(2-fluoro-ethyl)-4-oxo-1,4-dihydro-quinoline-3-carboxylic Acid Ethyl Ester] here?
Answer: 2 µg/mL (≈ 3.16 µM)

Question: And the MIC [2]?
Answer: 2 µg/mL (≈ 3.16 µM)

Question: What about the MIC [3] of the same compound?
Answer: > 64 µg/mL

Question: What about the MIC [4] of the same compound?
Answer: 0.5 µg/mL (≈ 0.789 µM)

Question: What about the MIC [5] of the same compound?
Answer: 4 µg/mL (≈ 6.31 µM)

Question: And the MIC [6]?
Answer: 1 µg/mL (≈ 1.58 µM)

Question: What about the MIC [7] of the same compound?
Answer: 0.5 µg/mL (≈ 0.789 µM)

Question: What about the MIC [8] of the same compound?
Answer: 1 µg/mL (≈ 1.58 µM)

Question: What about the MIC [9] of the same compound?
Answer: 4 µg/mL (≈ 6.31 µM)

Question: And the MIC [10]?
Answer: 64 µg/mL (≈ 101 µM)

Question: Which results are given for C#CC(O)[C@H]1CN(c2ccc(N3CCN(c4nc5c(cc4F)c(=O)c(C(=O)O)cn5-c4ccc(F)cc4F)CC3)c(F)c2)C(=O)O1 (stereo partly drawn) [EXAMP. 19, 1-(2,4-difluoro-phenyl)-6-fluoro-7-(4-{2-fluoro-4-[5-(R)-(1-hydroxy-prop-2-inyl)-2-oxo-oxazolidin-3-yl]-phenyl}-piperazin-1-yl)-4-oxo-1,4-dihydro-[1,8]Naphthyridine-3-carboxylic Acid]?
Answer: MIC [1]: 8 µg/mL (≈ 12.5 µM); MIC [2]: 4 µg/mL (≈ 6.27 µM); MIC [3]: 32 µg/mL (≈ 50.2 µM); MIC [4]: 4 µg/mL (≈ 6.27 µM); MIC [5]: 2 µg/mL (≈ 3.14 µM); MIC [6]: 4 µg/mL (≈ 6.27 µM); MIC [7]: 8 µg/mL (≈ 12.5 µM); MIC [8]: 8 µg/mL (≈ 12.5 µM); MIC [9]: > 64 µg/mL; MIC [10]: 1 µg/mL (≈ 1.57 µM)

Question: Which MIC [1] does the source give for CC(=O)NC[C@H]1CN(c2ccc(N3CCN(c4cc5c(cc4F)c(=O)c(C(=O)O)cn5C4CC4)CC3)c(F)c2)C(=O)O1 [EXAMP. 1 + 8, 7-(4-{4-[5-(S)-(acetylamino-methyl)-2-oxo-oxazolidin-3-yl]-2-fluoro-phenyl}-piperazin-1-yl)-1-cyclopropyl-6-fluoro-4-oxo-1,4-dihydro-quinoline-3-carboxylic Acid] here?
Answer: 0.125 µg/mL

Question: And the MIC [2]?
Answer: 0.25 µg/mL

Question: What about the MIC [3] of the same compound?
Answer: 8 µg/mL

Question: And the MIC [4]?
Answer: < 0.125 µg/mL

Question: What about the MIC [5] of the same compound?
Answer: 0.25 µg/mL

Question: And the MIC [6]?
Answer: 0.125 µg/mL

Question: And the MIC [7]?
Answer: 0.125 µg/mL

Question: And the MIC [8]?
Answer: < 0.125 µg/mL

Question: What about the MIC [9] of the same compound?
Answer: 0.25 µg/mL

Question: What about the MIC [10] of the same compound?
Answer: 0.25 µg/mL
